The record followed here is patent US12139520B2 (priority 2020, dated 2024).

The target in experiment [1] is T1, hAMY3 receptor (Homo sapiens, UniProt O60896+P30988).
T1 sequence (P30988 25-474): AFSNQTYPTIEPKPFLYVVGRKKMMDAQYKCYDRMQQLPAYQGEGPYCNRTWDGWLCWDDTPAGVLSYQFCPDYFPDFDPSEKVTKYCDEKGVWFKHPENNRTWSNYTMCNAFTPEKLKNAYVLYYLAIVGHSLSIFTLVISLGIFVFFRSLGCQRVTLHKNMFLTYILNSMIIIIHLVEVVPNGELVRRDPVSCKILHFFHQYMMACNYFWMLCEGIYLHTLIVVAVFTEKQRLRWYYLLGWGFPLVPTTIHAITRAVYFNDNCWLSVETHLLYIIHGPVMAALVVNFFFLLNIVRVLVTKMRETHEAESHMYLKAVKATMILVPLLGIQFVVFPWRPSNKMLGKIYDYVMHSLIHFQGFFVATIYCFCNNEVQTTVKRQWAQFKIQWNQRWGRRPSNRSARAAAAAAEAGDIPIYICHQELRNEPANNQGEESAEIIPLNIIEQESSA
T1 sequence (O60896 24-148 partner): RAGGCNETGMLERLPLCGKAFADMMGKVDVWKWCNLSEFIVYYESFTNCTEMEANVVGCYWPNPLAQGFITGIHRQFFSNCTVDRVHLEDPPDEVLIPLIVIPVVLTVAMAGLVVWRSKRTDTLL
In words: cAMP assay for in vitro receptor activation, hAMY3-R. The class given is cell-based. Conditions: cAMP assay, hAMY3 receptor; read-out: hAMY3R EC50. An outline of the steps: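 Graded compound concentrations were applied for 30 min at room temperature to stably hAMY3-expressing cells in DPBS, 0.05% casein, 0.5 mM IBMX; cAMP detected by TR-FRET.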

Experiment [2] has as its target hAM1 receptor (Homo sapiens, UniProt O60895+Q16602). Nature of the experiment: cAMP assay for in vitro receptor activation, hAM1-R. The format is cell-based. Conditions: cAMP assay, hAM1 receptor; read-out: hAM1R EC50. An outline of the steps:
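A subcloned monoclonal line stably expressing hAM1 receptor is thawed and plated at 8000 cells/well. The assay buffer is DPBS with 0.05% casein and 0.5 mM IBMX, and receptor activation is followed by cAMP levels.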

Numbered stars: 1 amine (or outer) side, 2 acyl side, 3 side chain; on linkers, the order of the positions; unused ones are H or OH. Bridge positions count the residues as written; N and C are the ends. Square brackets hold non-standard residues; d marks the D form. Peptide text beside a SMILES is read from it. * marks the point of attachment. C20 diacid = O=C(O)CCCCCCCCCCCCCCCCCCC(=O)*; γGlu = O=C(O)[C@H](CCC(=O)[*:2])N[*:1]; Hyp = O=C(O)[C@@H]1C[C@@H](O)CN1

hAM1 receptor, sequence (Q16602 23-461): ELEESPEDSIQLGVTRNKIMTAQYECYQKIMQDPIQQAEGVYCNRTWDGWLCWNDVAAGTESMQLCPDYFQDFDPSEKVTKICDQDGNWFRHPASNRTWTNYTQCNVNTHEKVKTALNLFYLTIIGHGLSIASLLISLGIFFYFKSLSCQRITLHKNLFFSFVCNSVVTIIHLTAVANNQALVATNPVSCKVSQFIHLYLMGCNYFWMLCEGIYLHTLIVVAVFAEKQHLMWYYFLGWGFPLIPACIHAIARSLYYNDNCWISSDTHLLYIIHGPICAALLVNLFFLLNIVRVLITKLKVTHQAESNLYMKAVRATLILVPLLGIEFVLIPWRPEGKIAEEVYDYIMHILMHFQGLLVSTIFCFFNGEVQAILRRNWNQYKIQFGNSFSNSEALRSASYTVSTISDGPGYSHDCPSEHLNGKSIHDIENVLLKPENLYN
hAM1 receptor, sequence (O60895 43-175 partner): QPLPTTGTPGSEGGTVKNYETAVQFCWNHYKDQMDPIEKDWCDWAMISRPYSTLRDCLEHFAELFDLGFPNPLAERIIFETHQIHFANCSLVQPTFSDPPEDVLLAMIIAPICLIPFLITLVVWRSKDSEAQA

The EC50 is the midpoint of the concentration-response curve. As for `CC[C@H](C)[C@H](NC(=O)[C@H](CCC(N)=O)NC(=O)[C@H](Cc1c[nH]cn1)NC(=O)[C@H](C)NC(=O)[C@H](CC(C)C)NC(=O)[C@H](CCCNC(=N)N)NC(=O)[C@H](CCC(N)=O)NC(=O)[C@@H](NC(=O)[C@@H](NC(=O)[C@@H]1CSSC[C@H](NC(=O)[C@H](CCCCN)NC(=O)CC[C@H](NC(=O)CCCCCCCCCCCCCCCCCCC(=O)O)C(=O)O)C(=O)N[C@@H](CC(N)=O)C(=O)N[C@@H]([C@@H](C)O)C(=O)N[C@@H](C)C(=O)N[C@@H]([C@@H](C)O)C(=O)N1)[C@@H](C)O)C(C)C)C(=O)N[C@@H](C)C(=O)N[C@@H](CCC(N)=O)C(=O)N[C@@H](Cc1ccccc1)C(=O)N[C@H](C(=O)N[C@@H](CC(N)=O)C(=O)N[C@@H](CCCCN)C(=O)N[C@@H](CC(=O)O)C(=O)N[C@@H](CCCCN)C(=O)N[C@@H](CC(=O)O)C(=O)N[C@@H](CC(N)=O)C(=O)N[C@H](C(=O)N[C@@H](C)C(=O)N1CCC[C@H]1C(=O)N1CCC[C@H]1C(=O)N[C@H](C(=O)N[C@@H](CC(N)=O)C(=O)N[C@H](C(=O)NCC(=O)N[C@@H](CO)C(=O)N[C@@H](CC(N)=O)C(=O)NCC(=O)N1C[C@H](O)C[C@H]1C(N)=O)C(C)C)[C@@H](C)O)C(C)C)[C@@H](C)O` [compound 95] ({C20 diacid-γGlu}-KCNTATCTVQRLAHQIAQFTNKDKDNVAPPTNVGSNG[Hyp]-NH2; disulfide 2-7), the EC50 was 0.016 nM in experiment [1] and > 5000 nM in experiment [2].
The like results for `CC[C@H](C)[C@H](NC(=O)[C@H](CCC(N)=O)NC(=O)[C@H](CCC(=O)O)NC(=O)[C@H](C)NC(=O)[C@H](CC(C)C)NC(=O)[C@H](CCCNC(=N)N)NC(=O)[C@H](CCC(N)=O)NC(=O)[C@@H](NC(=O)[C@@H](NC(=O)[C@@H]1CSSC[C@H](NC(=O)[C@H](CCCCN)NC(=O)CC[C@H](NC(=O)CCCCCCCCCCCCCCCCCCC(=O)O)C(=O)O)C(=O)N[C@@H](CC(N)=O)C(=O)N[C@@H]([C@@H](C)O)C(=O)N[C@@H](C)C(=O)N[C@@H]([C@@H](C)O)C(=O)N1)[C@@H](C)O)C(C)C)C(=O)N[C@@H](Cc1ccc(O)cc1)C(=O)N[C@@H](CCC(N)=O)C(=O)N[C@@H](Cc1ccccc1)C(=O)N[C@H](C(=O)N[C@@H](CC(=O)O)C(=O)N[C@@H](CCCCN)C(=O)N[C@@H](CC(=O)O)C(=O)N[C@@H](CCCCN)C(=O)N[C@@H](CC(=O)O)C(=O)N[C@@H](CC(N)=O)C(=O)N[C@H](C(=O)N[C@@H](C)C(=O)N1CCC[C@H]1C(=O)N1CCC[C@H]1C(=O)N[C@H](C(=O)N[C@@H](CC(N)=O)C(=O)N[C@H](C(=O)NCC(=O)N[C@@H](CO)C(=O)N[C@@H](CC(N)=O)C(=O)N[C@H](C(=O)N1C[C@H](O)C[C@H]1C(N)=O)[C@@H](C)O)C(C)C)[C@@H](C)O)C(C)C)[C@@H](C)O` [compound 96] ({C20 diacid-γGlu}-KCNTATCTVQRLAEQIYQFTDKDKDNVAPPTNVGSNT[Hyp]-NH2; disulfide 2-7) were, in that order, 0.016 nM and > 5000 nM.
